Several values for one entry are separate records, joined by “and”; a condition that tells them apart may be missing. Equal entries are not always repeated. Where two headings read alike, the source gives them in different places.
Legend:
[1] = target: HIV-1 protease (Human immunodeficiency virus type 1 group M subtype B, UniProt P04585); assay: Fluorescence HIV-1 Protease Inhibitor Assay (Pandex); type: biochemical; set-up: made in house; host or cells: E. coli K12 L507/pHP10D (NRRL B-18560)
[2] = system: HIV-1 isolates IIIB and/or RF in MT-2 cells; assay: SRI primary anti-HIV screen, MTT assay of inhibition of HIV-induced cell killing in MT2 cells; type: cell-based; conditions: MT2 cells
Description: I. Primary Drug Screening of Anti-HIV Compounds at Southern Research Institute (SRI) (Results recorded in Table 1 are designated “SRI CEM (ng/ml)” or “SRI MT2 (ng/ml)”)
(§1) A. Principle of MTT Assay:
(§2) SRI has an established program for the primary antiviral analysis of compounds in microtiter assays which measures the ability of a selected compound to inhibit HIV-induced cell killing. This assay involves the conversion of the tetrazolium dye MTT to a colored formazan product by mitochondrial enzymes in metabolically active cells. This assay system is used at SRI to screen over 30,000 compounds per year. Briefly, the assay involves the infection of CEM or MT2 cells in round bottom 96-well plates. The compound of interest is added just prior to infection. Following 6 days of incubation at 37° C. the plates are stained with MTT. The results of the assay are quantitated spectrophotometrically on a Molecular Devices Vmax plate reader. The data are analyzed by linear regression utilizing an in-house software program to calculate antiviral activity (IC25, IC50, IC95) and toxicity (TC25, TC50, TC95) as well as other values.
(§3) Primary antiviral assays are routinely performed in CEM or MT-2 cells.
(§4) B. Standard Screening Assays in CEM and MT-2 Cells
(§5) 1. Compound dilution and delivery to the plates
Drugs are solubilized in the appropriate vehicle such as distilled water or DMSO if necessary. Latex gloves, lab coats and masks are used during all phases of the handling process to prevent exposure to potentially harmful agents. The drug is prepared at the appropriate concentration and stored at −20° C. until used by the screening laboratory. The first dilution of each compound is made in a dilution tube with medium to yield a concentration two-fold that of the highest test concentration. Sterile titer tubes are then used to make serial one half-log dilutions of each compound. Following drug dilution, the diluted compound is added to the appropriate well of a 96-well microtiter plate. […] When testing includes only six dilutions, two drugs can be assayed on a single microtiter plate. The drugs are added to the plate in a final volume of 100 microliters.
(§6) During the time the drug dilutions are prepared, cells are washed and counted. Viability is monitored by trypan blue dye exclusion and assays are not performed if the viability falls below 90%. Cells are maintained in an exponential growth phase and are split 1:2 on the day prior to assay to assure exponential growth rate.
(§7) For the primary screen, the cell lines utilized are CEM and MT-2. Unless otherwise indicated, the medium used is RPMI 1640 with 10% heat-inactivated fetal calf serum (FBS), glutamine and antibiotics.
(§8) Cells are propagated at 37° C. in an atmosphere of 5% CO2 in air. The virus employed for this work is HIV-1 isolates IIIB and/or RF, which are prepared by an acute infection process.
(§9) Briefly, virus-infected cells are pelleted on a daily basis beginning at three days post-infection until the virus has killed all of the cells in the culture. Reverse transcriptase activity and p24 ELISA are used to identify pools with the greatest amout of virus.
(§10) These 24-hour harvests are pooled, filtered and frozen at −90° C. Prior to use in the assay, the infectious pool of virus is titered on all available cell lines in order to determine the amount of virus required in the antiviral assay.
In general, pools produced by the acute infection method require the addition of one microliter of infectious virus per well resulting in the screening of drugs at a multiplicity of infection of 0.01. In this manner, enough virus is prepared and frozen to complete over one thousand microtiter plates, allowing the testing of up to two thousand compounds from a single stock of infectious virus. The use of a single stock of virus for a long period of testing has very favorable effects on the repeatability of the assay systems. […]

[3] = system: Viral SN123 infected CEM cells; conditions: Human immunodeficiency virus 1, CCRF-CEM, values in parentheses are 35B in same assay
[4] = system: HIV-1 isolates IIIB and/or RF in CEM cells; assay: SRI primary anti-HIV screen, MTT assay of inhibition of HIV-induced cell killing in CEM cells; type: cell-based; conditions: CEM cells
Method: as §1
as §2, with “This” for “SRI has an established program for the primary antiviral analysis of compounds in microtiter assays which measures the ability of a selected compound to inhibit HIV-induced cell killing. This”
as §3, §4, §5
Drugs are solubilized in the appropriate vehicle such as distilled water or DMSO if necessary. Latex gloves, lab coats and masks are used during all phases of the handling process to prevent exposure to potentially harmful agents. The drug is prepared at the appropriate concentration and stored at −20° C. until used by the screening laboratory. The first dilution of each compound is made in a dilution tube with medium to yield a concentration two-fold that of the highest test concentration. Sterile titer tubes are then used to make serial one half-log dilutions of each compound. Following drug dilution, the diluted compound is added to the appropriate well of a 96-well microtiter plate. Up to 12 dilutions can be assayed conveniently in triplicate on a single plate with all appropriate controls including cell control, virus control, toxicity control, drug color control, medium control and plastic (background) control. When testing includes only six dilutions, two drugs can be assayed on a single microtiter plate. The drugs are added to the plate in a final volume of 100 microliters.
as §6, §7, §8, §9, §10
In general, pools produced by the acute infection method require the addition of one microliter of infectious virus per well resulting in the screening of drugs at a multiplicity of infection of 0.01. In this manner, enough virus is prepared and frozen to complete over one thousand microtiter plates, allowing the testing of up to two thousand compounds from a single stock of infectious virus.
Virus infection of the CEM and MT-2 cells for the antiviral assay is carried out in a bulk infection process.

[5] = normalized to positive control (=1.0), * = a calculated average, read-out: Fluorescence Assay IC50 in ng/mL (converted)
[6] = value as run, 35B value of the same run in footnote or parentheses, read-out: Pandex IC50 ng/ml (converted)
[7] = normalized to positive control (=1.0), * = a calculated average
[8] = value as run, 35B value of the same run in footnote or parentheses

SMILES	melting point	IC50 [1, 5]	further results
CN1CCc2c(cccc2C(=O)N[C@@H](CSc2ccc3ccccc3c2)[C@H](O)Cc2ccccc2C(=O)NC(C)(C)C)C1 (relative stereo) [Example 59, [2′R-(2′R*,3′S*)]-N-t-Butyl-2-[2′-hydroxy-3′-naphth-2-ylthiomethyl-4′-aza-5′-oxo-5′-[2-N′(methyl)-1″,2″,3″,4″-tetrahydroisoquinolin-5″-yl)pentyl] benzamide]	110 to 113 °C	587 nM	–
Cc1c(OP(=O)(O)O)cccc1C(=O)N[C@@H](Cc1ccccc1)[C@H](O)CN1C[C@H]2CCCC[C@H]2C[C@H]1C(=O)NC(C)(C)C (relative stereo) [Example 78, [3S-(3R*, 4aR*, 8aR*, 2′S*, 3′R*)]-2-[2′-Hydroxy-3′-phenylmethyl-4′-aza-5′-oxo-5′-(2″-methyl-3″-Hydroxyphenyl)pentyl]decahydroisoquinoline-3-N-t-butyl carboxamide 3″-dihydrogen phosphate]	–	–	SRI MT2 IC50 [2]: 0.08 µg/mL; IC50 ([3]; read-out: Whole cell IC50 nM, CEM cells): 8.64 nM; IC90 ([3]; read-out: Whole cell IC90 nM, CEM cells): 66.5 nM; IC50 [1, 6]: 3240 nM
CC(C)(C)NC(=O)[C@@H]1C[C@@H]2SCC[C@@H]2CN1C[C@@H](O)[C@H](CSc1ccccc1)NC(=O)C1CCS(=O)(=O)C1 (relative stereo) [Example 89, [6S-(6R*, 3aS*, 7aR*, 2′S*, 3′S*)]-2-[2′-Hydroxy-3′-phenylthiomethyl-4′-aza-5′-oxo-5′-(tetrahydrothieno-3″-yl-1″,1″-dioxide)pentyl]-octahydrothieno[3,2-c]pyridine-6-N-t-butyl carboxamide]	–	–	CEM IC95 [4]: 98 nM; IC50 [1, 6]: 0.856 nM
CC(C)(C)NC(=O)C1CC2CCCCC2CN1CC(O)C(Cc1ccccc1)NC(=O)c1cccc(Cl)c1Cl (stereo not drawn) [Example 14, [3S-(3R*,4aR*,8aR*,2′S*,3′R*)]-2-[2′-Hydroxy-3′-phenylmethyl-4′-aza-5′-oxo-5′-(2″,3″-dichloro-phenyl)pentyl] decahydroisoquinoline-3-N-t-butylcarboxamide]	–	–	SRI MT2 IC50 [2]: 1.61 µg/mL and 1.29 µg/mL; Fluorescence Assay IC50 [1, 7]: 0.101 µg/mL; Pandex IC50 ng/ml [1, 8]: 48.7^d ng/ml
Cc1cnccc1C(=O)NC(CSc1ccccc1)C(O)CN1CCN(Cc2cccnc2)CC1C(=O)NC(C)(C)C (stereo not drawn) [Example 35, [2S-(2R*,2′S*,3′S*)]-1-[2′-Hydroxy-3′-phenylthiomethyl-4′-aza-5′-oxo-5′-(3″-methyl-pyrid-4″-yl)[pentyl]-4-(pyrid-3′″-ylmethyl)piperazine-2-N-t-butylcarboxamide]	–	–	SRI MT2 IC50 [2]: 0.519 µg/mL and 0.368 µg/mL; Fluorescence Assay IC50 [1, 7]: 0.0317 µg/mL; Pandex IC50 ng/ml [1, 8]: 73^c ng/ml
Cc1c(N)cccc1C(=O)NC(CSc1ccc2ccccc2c1)C(O)Cc1ccccc1C(=O)NC(C)(C)C (stereo not drawn) [Example 42, [2′R-(2′R*,3′S*)]-N-t-Butyl-2-[2′-hydroxy-3′-naphth-2-ylthiomethyl-4′-aza-5′-oxo-5′-(2″-methyl-3″-aminophenyl)pentyl] benzamide]	105 to 106 °C	191 nM	–
CC(C)(C)NC(=O)c1ccccc1C[C@@H](O)[C@@H](CSc1ccc2ccccc2c1)NC(=O)c1cccc(N)c1Cl [Example 44, [2′R-(2′R*,3′S*)]-N-t-Butyl-2-[2′-hydroxy-3′-naphth-2-ylthiomethyl-4′-aza-5′-oxo-5′-(2″-chloro-3″-aminophenyl)pentyl] benzamide]	107 to 108 °C	121 nM	–
CC(C)(C)NC(=O)c1ccccc1CC(O)C(CSc1ccc2ccccc2c1)NC(=O)c1cccc(N)c1Br (stereo not drawn) [Example 45, [2′R-(2′R*,3′S*)]-N-t-Butyl-2-[2′-hydroxy-3′-naphth-2-ylthiomethyl-4′-aza-5′-oxo-5′-(2″-bromo-3″-aminophenyl)pentyl] benzamide]	110 to 112 °C	214 nM	–
CC(C)(C)NC(=O)c1c(CC(O)C(CSc2ccc3ccccc3c2)NC(=O)c2cccc(N)c2Cl)ccc2ccccc12 (stereo not drawn) [Example 49, [2′R-(2′R*,3′S*)]-N-t-Butyl-2-[2′-hydroxy-3′-naphth-2-ylthiomethyl-4′-aza-5′-oxo-5′-(2″-chloro-3″-aminophenyl)pentyl]-1-naphthylamide]	110 to 112 °C	137 nM	–
CC(C)(C)NC(=O)c1ccccc1CC(O)C(CSc1ccc2ccccc2c1)NC(=O)c1cccc(N)c1 (stereo not drawn) [Example 50, [2′R-(2′R*,3′S*)]-N-t-Butyl-2-[2′-hydroxy-3′-naphth-2-ylthiomethyl-4′-aza-5′-oxo-5′-(3″-aminophenyl)pentyl] benzamide]	101 to 102 °C	222 nM	–
CC(C)(C)NC(=O)c1ccccc1CC(O)C(CSc1ccc2ccccc2c1)NC(=O)c1cc(N)ccc1Cl (stereo not drawn) [Example 55, [2′R-(2′R*,3′S*)]-N-t-Butyl-2-[2′-hydroxy-3′-naphth-2-ylthiomethyl-4′-aza-5′-oxo-5′-(2″-chloro-5″-aminophenyl)pentyl] benzamide]	109 to 110 °C	194 nM	–
CC(C)(C)NC(=O)c1ccccc1C[C@@H](O)[C@@H](CSc1ccc2ccccc2c1)NC(=O)c1cccc2ccccc12 [Example 61, [2′R-(2′R*,3′S*)]-N-t-Butyl-2-[2′-hydroxy-3′-naphth-2-ylthiomethyl-4′-aza-5′-oxo-5′-(naphth-1″-yl)pentyl] benzamide]	92 to 95 °C	2770 nM	–
CC(C)(C)NC(=O)c1ccccc1C[C@@H](O)[C@@H](CSc1ccc2ccccc2c1)NC(=O)c1cccc2[nH]ccc12 [Example 62, [2′R-(2′R*,3′S*)]-N-t-Butyl-2-[2′-hydroxy-3′-naphth-2-ylthiomethyl-4′-aza-5′-oxo-5′-(indol-4″-yl)pentyl] benzamide]	109 to 110 °C	350 nM	–

Source: US20030216569A1, “Method of making HIV protease inhibitors” (priority 1993, published 2003)
